One data set relates to Mycobacterium avium 101. The experiment in a line: In vivo efficacy in mice infected with Mycobacterium avium 101 (FIG. 2). Particulars: dosed orally with 25 mg/kg and 100 mg/kg.
In a further data set the test system is M. avium. The experiment in a line: Murine MAC infection model, two week infection in Balb/c mice. Type of data set: in vivo, Mycobacterium avium. To be noted: two week infection experiment, control. The source says: AND CHEMOTHERAPY, 1995, 39(8), 1647-1654 for review of MAC infection model and Antimicrob Agents Chemother. 1992, 36(11):2413-7 for a typical experiment (done with clarithromycin).

A short description of another data set: in vivo. Particulars: mouse, MTD (maximum tolerated dose).
The subject of another data set is mice. To be noted: mouse.

Structures are written as SMILES.

Protocol for Mycobacterium avium 101: Panel A is the log 10 colony forming units (CFU) drop in bacteria in the lungs when treated with ND-10885 (at 25 and 100 mg/kg), rifampicin (RMP, 20 mg/kg) and a combination of ND-10885 (100 mg/kg) and rifampicin (20 mg/kg). Panel B is the log 10 colony forming units (CFU) drop in bacteria in the spleen when treated with ND-10885 (at 25 and 100 mg/kg), rifampicin (RMP, 20 mg/kg) and a combination of ND-10885 (100 mg/kg) and rifampicin (20 mg/kg). Panel C is the log 10 colony forming units (CFU) drop in bacteria in the liver when treated with ND-10885 (at 25 and 100 mg/kg), rifampicin (RMP, 20 mg/kg) and a combination of ND-10885 (100 mg/kg) and rifampicin (20 mg/kg).

One may read the melting point as the temperature, or range, at which the solid turns liquid. Compound `Cc1ccc2nc(C)c(C(=O)NCc3ccc(S(F)(F)(F)(F)F)cc3)n2c1` registered a melting point of 176 to 177 °C.
With `Cc1ccn2c(C(=O)NCc3ccc4c(c3)CCO4)c(C)nc2c1` [ND-10885], the “in vivo efficacy (log 10 CFU drop in lungs, spleen, liver)” value in the data set on Mycobacterium avium 101 is “validate the in vivo efficacy”.
For the compound `CO[C@H]1/C=C/O[C@@]2(C)Oc3c(C)c(O)c4c(O)c(c(/C=N/N5CCN(C)CC5)c(O)c4c3C2=O)NC(=O)/C(C)=C\C=C\[C@H](C)[C@H](O)[C@@H](C)[C@@H](O)[C@@H](C)[C@H](OC(C)=O)[C@@H]1C` [rifampicin], the “log 10 CFU drop in the amount of M. avium in the lungs” value in the data set on M. avium stood at 1.8 log 10 CFU.
A word on the MTD: it is the largest dose that counted as tolerated. Lower therefore signals poorer tolerability. For the compound `CCc1nc2ccc(Cl)cn2c1C(=O)NCc1ccc(N2CCSCC2)c(F)c1` [ND-11622], the MTD in “in vivo” was ≥ 250 mg/kg.
In turn, `Cc1ccn2c(C(=O)NCc3ccc(S(F)(F)(F)(F)F)cc3)c(C)nc2c1` displayed a melting point of 186 to 187 °C.
On to `CCc1nc2ccc(Cl)cn2c1C(=O)NCc1ccc(S(F)(F)(F)(F)F)cc1`, for which the melting point was in the range of 191 to 192 °C.
For `Cc1ccn2c(C(=O)NCc3ccc(N4CCOCC4)cc3)c(C)nc2c1` [ND-10823], the “dose limiting toxicity / in vivo toxicity” value in the data set with mice was determined as 100 mg/kg.
With `Cc1ccn2c(C(=O)NCc3ccc(N4CCCN(c5ccc(C(F)(F)F)cc5)CC4)c(F)c3)c(C)nc2c1` [ND-11598], in the data set “in vivo”, the MTD was ≥ 250 mg/kg.

These data come from US10919888B2, “Benzyl amine-containing heterocyclic compounds and compositions useful against mycobacterial infection” (priority 2015, dated 2021).
